According to patent US11684601B2, “Treatment of cancer with combinations of agents” (The Board of Trustees of the Leland Stanford Junior …, priority 2019, dated 2023):

Columns and labels:
[1] = system: acetylation on H3K9, H3K27, and total H3; assay: Immunoblots of histone acetylation; format: cell-based; settings: hypoxia, CHP134; for acetylation on H3K9, H3K27, and total H3: 5 mM acetate, 0.5 mM or 2 mM GTA
Procedure: (§1) Protein isolation and western blot. Cells were washed with PBS buffer and lysed with Harvest lysis buffer supplemented with Halt inhibitors for 5-10 min. Cell lysate was centrifuged at 5000 rpm for 5 min at 4° C. The supernatant containing cytosolic proteins was transferred to a new EP tube. The insoluble part contains nuclear proteins and was further lysed with nuclear lysis buffer for 5 min at 4° C. Then the lysate was sonicated in water-bath at 4° C. for 6 cycles (1 cycle=30 s sonication and 30 s cooldown). After sonication, the cell lysate was centrifuged at 15000 rpm for 10 min. Protein concentration was determined by BOA assay. 1 μg nuclear proteins or 1 μg cytosolic proteins were boiled in loading buffer with reducing reagents, then separated with SDS-PAGE. Protein were transferred onto a nitrocellulose membrane. After blocking in 5% non-fat milk for 1 hour, the first antibody was applied. After 3×TBST washes, HRP-conjugated secondary antibodies were applied. Signals were detected with an ECL kit. The complete antibody list is in table 1.

[2] = system: tri-methylation on H3K9, H3K27; assay: Immunoblots of histone methylation; format: cell-based; settings: hypoxia; CHP134; 1 mM or 5 mM DMKG
Procedure: as §1

[3] = system: CHP134 cells; assay: qPCR for SNCG and NGFR expression, CHP134; format: cell-based; settings: hypoxia, 16 h
Procedure: (§2) RNA Isolation, Reverse Transcription, and Real-Time PCR. Total RNA was isolated from tissue culture plates according to the TRIzol Reagent (Invitrogen) protocol. 3 μg of total RNA was used in the reverse transcription reaction using the iScript cDNA synthesis kit (Bio-Rad). Quantitative PCR amplification was performed on the Prism 7900 Sequence Detection System (Applied Biosystems) using Taqman Gene Expression Assays (Applied Biosystems). Gene expression data were normalized to 18S rRNA.

[4] = infants with Canavan disease; high dose; cited from earlier work
[5] = system: SMS-KCNR cells; assay: qPCR for SNCG and NGFR expression, SMS-KCNR; format: cell-based; settings: hypoxia; 10 μM RA combined with 5 mM acetate or 2 mM GTA, 16 h
Procedure: as §2

[6] = system: SMS-KCNR cells; assay: Neurite outgrowth assay, SMS-KCNR; format: cell-based; settings: 48 h
Procedure: (§3) Neurite outgrowth assay. For the differentiation of neuroblastoma cells, 1×10^5 CHP134 or SMS-KNCR cells were plated in 6 well-plate. After overnight incubation, cells in hypoxia treatment group were pre-incubated in 0.5% 02 hypoxia chamber for 6 h. Then RA was added to reach a final concentration of 10 μM. After 48 h treatment, images were taken through an Olympus phase contrast microscope (×20 magnification). The lengths of the neurites were traced and quantified using the ImageJ plugin NeuronJ. Within each sample, total neurite length was measured and normalized by the number of cell bodies, mean value from biological triplicates was reported.

[7] = system: CHP134 cells; assay: Neurite outgrowth assay, CHP134; format: cell-based
Procedure: as §3

[8] = Acetate measurement in plasma; format: in vivo, NSG mice; settings: oral GTA, 5% in drinking water; p-value not significant
Procedure: For acetate measurement, 10 ul of serum was mixed with 10 ul of 50 uM ^13C2-acetate. Then, the mixture was precipitated by the addition of 80 ul acetonitrile and centrifuged for 10 min at 20,000×g. 80 ul supernatant was transferred to a new tube and derivertized according to the published protocol. 2 ul sample was subjected to mass spectrometry analysis using Agilent 1290 coupled to Q-TOF 6545. […] The mobile phase were 5 mM ammonium formate and 0.1% formic acid in water (A) and 90% acetonitrile (B). […] Agilent Q-TOF was operated in positive mode with ion spray voltage at 3500 V. The ratio of acetate to ^13C2-acetate was calculated using Agilent Profinder software B.08.00.
Mouse xenograft model. In viva studies were performed in accordance with protocols approved by the Institutional Animal Care and Use Committee at Stanford University and in compliance with all regulatory standards, 6 to 8-week-old male NSG mice were provided by Dr. Erinn Rankin. 2×10^6 CHP134 cells suspended in […] of RPMI-1640 with 50% Matrigel (BD Biosciences) were implanted subcutaneously into the dorsal flank of the mice. Tumor growth was recorded using digital caliper every other day, and tumor volumes were estimated using the formula: (L×W^2)/2, where L=length and W=width of tumor. The animals were randomized into 4 groups (Control, RA, GTA and GTA+RA) when the tumor volumes reached approximately 150 mm^3. […]

[9] = Pharmacokinetics of RA in NSG mice; format: in vivo
Procedure: For 13-cis-retinoic acid measurement, serum samples were collected at 0.5 h, 1 h, 2 h and 6 h after RA injection (10 mg/kg, i.p.). 10 ul serum was mixed with 90 ul extraction buffer (ethyl acetate:n-hexane:IPA, 30:60:10). After 20 min on a shaker at 120 rpm, the mixture was centrifuged at 5000 g for 5 min. The organic layer was collected into a new tube and dried using speed vacuum. The residue was reconstituted with 100 ul of 5 mM ammonium formate in water/acetonitrile (1:1). 5 ul sample was subjected to mass spectrometry analysis using Agilent 1290 coupled to QQQ 6470. […] The mobile phase was 5 mM ammonium formate and 0.1% formic acid in water (A) and 90% acetonitrile (B). […] Agilent QQQ 6470 was operated in positive mode with ion spray voltage at 3000 V. The MRM transitions were 301.2→159.1/205.1. Data was processed by Agilent MassHunter Quantitative Analysis for QQQ B.07.01. (Agilent Technologies)

[10] = system: CHP134 cells; assay: RNA-Seq pathway analysis of RA-upregulated genes; format: cell-based; settings: 24 h RA vs DMSO
Procedure: RNA Sequencing. The total RNA from four treatment groups (Nor_Ctrl, Nor_RA, Hyp_Ctrl and Hyp_RA, 3 replicates) was extracted using Trizol reagent according to the manufacturer's instructions (n=3). The RNA-seq library was constructed and subjected to 150 bp paired-end sequencing on an Illumina sequencing platform (Novogene). RNA-seq analysis was performed using the kallisto and sleuth analytical pipeline. In brief, a transcript index was generated with reference to Ensembl version 57 for hg19. Paired-end mRNA-seq reads were pseudo-aligned using kallisto (v0.42.4) with respect to this transcript index using 100 bootstraps (-b 100) to estimate the variance of estimated transcript abundances. Transcript-level estimates were aggregated to transcripts per million (TPM) estimates for each gene, with gene names assigned from Ensembl using biomaRt. Differential gene expression analysis was performed using the sleuth R package across pairwise groups (normoxia DMSO vs. normoxia RA, normoxia DMSO vs. hypoxia DMSO, normoxia RA vs. hypoxia RA) using Wald tests, with significant hits called with a sleuth q-vaulue<0.05 and fold change estimate b>abS(In(2)).

[11] = system: CHP134 mice xenografts; assay: Mouse xenograft model; format: in vivo; settings: 10 mg/kg RA i.p. daily; after 23 days' treatment
Procedure: Mouse xenograft model. […] Tumor growth was recorded using digital caliper every other day, and tumor volumes were estimated using the formula: (L×W^2)/2, where L=length and W=width of tumor. The animals were randomized into 4 groups (Control, RA, GTA and GTA+RA) when the tumor volumes reached approximately 150 mm^3. 10 mg/kg RA or DMSO vehicle was injected intraperitoneally daily for 3 weeks. Mice received GTA in the drinking water (5% by weight).

[12] = system: CHP134 cells; assay: Immunofluorescence staining of β-tubulin III / MAP2; format: cell-based; settings: 10 μM RA, 72 h
Procedure: Immunofluorescence staining. […] cells were seeded into 8-champer slides with a density of 6000 cells/well and incubated with indicated treatment for 3 days. Cells were fixed with 4% PFA in 0.1% PBS-tween at room temperature for 30 min followed by permeabilization with 0.1% Triton X-100 in PBS at room temperature for 10 min. The cells were washed with PBS twice and blocked with 2.5% horse serum at room temperature for 1 hour. Then, cells were subjected to immunofluorescence staining with primary antibody overnight at 4° C. After twice washes with PBS, cells were incubated with Alexa Fluor 594-labeled anti-rabbit secondary antibody (Life Technologies) at room temperature for 1 hour followed by staining with DAP for 20 min. Images were acquired with Leica DMi8 microscope.

[13] = system: chromatin accessibility at RAR/RXR binding sites; settings: hypoxia; 5 mM acetate
Procedure: ATAC-seq. ATAC-seq was performed and analyzed as previously described (n=2). […] -O 5 -m 30 -q 15. Bowtie 2 version 2.3.1 was used to align trimmed reads to hg19 with flags -q -phred33-X 2000 -fr -p 8 -x hg19, followed by samtools sort command. Duplicates were marked with Picard-tools version 1.83, then samtools view with flags -b -f 1 -F12 -L were used to filter mitochondria mapping reads with a bed file containing all chromosomes except chrM. Filtered mapping files are transferred into coverage bigwig file using deeptools with default bin size (10 bps). SPP/phantom was run to obtain the fragment length with maximum Strand cross-correlation. MACS2 callpeak function was then performed with flags -q 0.05 -nomodel-extsize=½ fragment length obtained from SPP. Associate p-values for each peak is generated and extracted from MACS2 output. Ranked gene lists were created from the RNA-Seq and ATAC-Seq datasets following differential testing. Gene set enrichment analysis were performed using the GSEA with the C2 (CP:REACTOME) MSigDB v6.2.

[14] = system: CHP134 cells; settings: hypoxia vs normoxia; U-13C-acetate 3 h
Procedure: Metabolic tracing study. For glucose isotope tracing, CHP134 cells were pretreated under normoxia or hypoxia for 16 h (n=3). Then the medium was changed to DMEM:F12 with 3.15 g/L ^13C6-glucose with 10% dialyzed FBS for 3 h. For acetate isotope tracing, the procedure was same as glucose tracing except that the complete DMEM:F12 medium was supplemented with 2 mM ^13C2-acetate.
Liquid chromatography-mass spectrometry analysis. For the metabolic tracing study, cells were washed with cold PBS, lysed in 80% Ultra LC-MS acetonitrile on ice for 15 min, centrifuged for 10 min at 20,000×g, and supernatant was subjected to mass spectrometry analysis. Liquid chromatography was performed using an Agilent 1290 Infinity LC system (Agilent, Santa Clara, US) coupled to a Q-TOF 6545 mass spectrometer (Agilent, Santa Clara, US). A hydrophilic interaction chromatography method (HILIC) with a BEH amide column (100 ×2.1 mm i.d., 1.7 μm; Waters) was used for compound separation at 35° C. with a flow rate of 0.3 ml/min. The mobile phase A consisted of 25 mM ammonium acetate and 25 mM ammonium hydroxide in water and mobile phase B was acetonitrile. The gradient elution was 0-1 min, 85 % B; 1-12 min, 85% B→65% B; 12-12.2 min, 65% B→40% B; 12.2-15 min, 40% B. After the gradient, the column was re-equilibrated at 85% B for 5 min. The overall runtime was 20 min, and the injection volume was 5 μL. […]

[15] = 10 μM RA combined with 5 mM acetate or 2 mM GTA

COC(=O)CCC(=O)C(=O)OC [DMKG, Dimethyl-α-ketoglutarate]
histone acetylation ([1]; 1 mM or 5 mM DMKG): did not significantly increase histone acetylation | histone hypermethylation [2]: reduced histone hypermethylation | expression of NGFR and SNCG ([3]; 10 μM RA combined with 5 mM DMKG): did not restore the expression of NGFR and SNCG

CC(=O)OCC(COC(C)=O)OC(C)=O [GTA, glycerol triacetate]
toxicity [4]: no detectable toxicity | expression of NGFR and SNCG [5]: significantly restored the expression of NGFR and SNCG | acetylation on H3K9, H3K27, and total H3 [1]: restored acetylation on H3K9, H3K27, and total H3 | expression of NGFR and SNCG [3, 15]: significantly restored the expression of NGFR and SNCG | RA-induced neuron-like morphological changes ([6]; hypoxia, 10 μM RA plus 2 mM GTA): restored the RA-induced neuron-like morphological changes | differentiative activity as a single agent ([7]; GTA alone): little to no differentiative activity | RA-induced neuron-like morphological changes ([7]; hypoxia, 10 μM RA plus 2 mM GTA, 48 h): restored the RA-induced neuron-like morphological changes | plasma acetate concentration vs control group [8]: slight increase of plasma acetate concentration

CC1=C(/C=C/C(C)=C/C=C/C(C)=C\C(=O)O)C(C)(C)CCC1 [RA, 13-cis-retinoic acid]
half-life of RA ([9]; 10 mg/kg i.p.): relative short half-life | time blood RA concentration maintained above 10 uM ([9]; 10 mg/kg i.p.): around 2 h | blood RA concentration ([9]; 10 mg/kg i.p., at 6 h after injection): reduced to the basal level | blood RA concentration ([9]; 10 mg/kg i.p., maintained for around 2 h): above 10 uM | time of peak blood RA concentration ([9]; 10 mg/kg, after i.p. injection): 30 min | pathway analysis of RA-upregulated genes [10]: enrichment of NGF signaling, transmission across of chemical synapses and neuronal system genes | anti-tumor effect (tumor volume, tumor weight) [11]: didn't show anti-tumor effect | β-tubulin III/MAP2 positive neurites ([12]; hypoxia vs normoxia): partially suppressed | β-tubulin III/MAP2 positive neurites ([12]; normoxia): increased β-tubulin III/MAP2 positive neurites | neurite outgrowth and differentiation morphology ([6]; 10 μM RA, hypoxia (0.5% O2) vs normoxia): partially diminished nerite outgrowth and the differentiation morphology | cell morphological changes / neurite outgrowth ([6]; 10 μM RA, normoxia (21% O2)): induced obvious cell morphological changes to a mature neuronal-like phenotype characterized by neurite outgrowth | neurite outgrowth and differentiation morphology ([7]; 10 μM RA, 48 h, hypoxia (0.5% O2) vs normoxia): partially diminished nerite outgrowth and the differentiation morphology | cell morphological changes / neurite outgrowth ([7]; 10 μM RA, 48 h, normoxia (21% O2)): induced obvious cell morphological changes to a mature neuronal-like phenotype characterized by neurite outgrowth

CC(=O)[O-].[Na+] [acetate, Sodium acetate]
chromatin accessibility [13]: partially restored chromatin accessibility | chromatin accessibility of genes with RAR/RXR binding sites [13]: increased chromatin accessibility | expression of NGFR and SNCG [5]: significantly restored the expression of NGFR and SNCG | acetylation on H3K9, H3K27, and total H3 [1]: restored acetylation on H3K9, H3K27, and total H3 | expression of NGFR and SNCG [3, 15]: significantly restored the expression of NGFR and SNCG | cellular acetyl-CoA production (13C labeled acetyl-CoA[M+2]) [14]: promote cellular acetyl-CoA production
